Consider 54 compounds from US20010049374A1 (priority 1997, published 2001).

Like-named read-outs stand apart in the source and are kept apart here. Where only a bound is given, the exact number is not on record here.

The target of the test is T1, urokinase enzyme Abbokinase (Homo sapiens, UniProt P00749).
T1 construct: purchased Abbott Laboratories, Abbott Park, Ill
The test is described as follows: Determination of urokinase inhibition (Abbokinase, chromogenic substrate S-2444). Particulars: substrate S-2444 at 200 μM, enzyme 2-3 nM, pH 7.4, 405 nm. In kind it is biochemical.

Setting [1] is: IC50, Inhibitory potency against urokinase.
Setting [2] is: Inhibitory potency against urokinase, read-out: IC50.

Description: Several vials were reconstituted as directed on the vial, aliquoted and stored frozen. The enzyme was further diluted in assay buffer and 10 μl was used in the assay. Enzyme concentration in the assay was 2-3 nM. […] The Spectromax® calculated the reaction rates which were used to calculate percent inhibition of the compounds of this invention versus the reaction rate of the enzyme in the absence of any inhibitor. The Ki's of the inhibitors were calculated from the percent inhibition and previously established Km.

In the case of `COc1ccc2ccc(C(=N)N)cc2c1Nc1ncccn1` [Example 106, 7-methoxy-8-(2-pyrimidinylamino)-2-naphthalenecarboximidamide], inhibition under setting [1] was half-maximal at 760 nM (IC50).
In the case of `[H]/N=C(/N)c1ccc2cc(C=Cc3ccc(CN(C)C)cc3)ccc2c1` [Example 107, (E)-6-[2-[[4-(dimethylamino)methyl]phenyl]ethenyl]-2-naphthalenecarboximidamide], under setting [2], the concentration for half-maximal inhibition (IC50) worked out at 2340 nM.
`N=C(N)c1ccc2cc(-c3cccc(C=O)c3)ccc2c1` [Example 111, 6-(3-formylphenyl)-2-naphthalenecarboximidamide] yielded an IC50 under setting [1] of 4170 nM.
Turning to `COC(=O)CCCCOc1ccc2ccc(C(=N)N)cc2c1` [Example 119, methyl 5-[7-[(aminoiminomethyl)-2-naphthalenyl]oxy]pentanoate], the half-maximal inhibitory concentration (IC50) under setting [2] came out at 4410 nM.
Under setting [1], `N=C(N)c1ccc2cc(C#Cc3ccc(N)cc3)ccc2c1` [Example 121, 6-[(4-aminophenyl)ethynyl]-2-naphthalenecarboximidamide] returned an IC50 of 890 nM.
For `CC(C)(C)OC(=O)NCc1ccc(C#Cc2ccc3cc(C(=N)N)ccc3c2)cc1` [Example 123, 1,1-dimethylethyl [[4-[[6-(aminoiminomethyl)-2-naphathalenyl]ethynyl]phenyl]methyl]carbamate], the IC50 under setting [2] worked out at 1240 nM.
Take `COc1ccc(C#Cc2ccc3cc(C(=N)N)ccc3c2)cc1CCN` [Example 125, 6-[[3-(2-aminoethyl)-4-methoxyphenyl]ethynyl]-2-naphthalenecarboximidamide]: under setting [1], the midpoint of inhibition, the IC50, lay at 230 nM.
Still for that read-out and setting: the value for `N=C(N)c1ccc2cc(C#Cc3ccc(CO)cc3)ccc2c1` [Example 126, 6-[[4-(hydroxymethyl)phenyl]ethynyl]-2-naphthalenecarboximidamide] was 870 nM; that for `COc1ccc2ccc(C(=N)N)cc2c1C1=CC(=O)CC1` [Example 131, 7-methoxy-8-(3-oxo-1-cyclopenten-1-yl)-2-naphthalenecarboximidamide] was 4180 nM.
In the case of `CC(C)(C)OC(=O)NCC1CCC(C(=O)Nc2ccc3cc(C(=N)N)ccc3c2)CC1` (stereo not drawn) [Example 137, 1,1-dimethylethyl [[4-[[[6-(aminoiminomethyl)-2-naphathalenyl]amino]carbonyl]-cyclohexyl]methyl]carbamate], the IC50 under setting [2] turned out to be 820 nM.
`N=C(N)c1ccc2cc(NC(=O)C3CCC(CN)CC3)ccc2c1` (stereo not drawn) [Example 139, N-[6-(aminoiminomethyl)-2-naphthalenyl]-4-4-(aminomethyl)cyclohexanescarboxamide] showed a half-inhibitory concentration (IC50) under setting [1] of 2640 nM.
Consider `N=C(N)c1ccc2cc(NC(=O)Nc3ccc(CN)cc3)ccc2c1` [Example 140, N-[6-(aminoiminomethyl)-2-naphthalenyl]-N′-[(4-aminomethyl)phenyl]urea], for which, under setting [1], the IC50 was determined as 460 nM.
With `COC(=O)Nc1cc(C(=O)Nc2ccc(CN)cc2)cc2ccc(C(=N)N)cc12` [Example 141, methyl [7-(aminoiminomethyl)-3-[[[4-(aminomethyl)phenyl]amino]carbonyl]-1-naphathalenyl]carbamate], the 50% inhibitory concentration (IC50) under setting [2] is 1.17 nM.
In turn, `N=C(N)c1ccc2cc(-c3ncc(-c4ccccc4)o3)ccc2c1` [Example 144, 6-(5-phenyl-2-oxazolyl)-2-naphthalenecarboximidamide] gave an IC50 under setting [1] of 1260 nM.
As for `N=C(N)c1ccc2cc(-c3ncc(-c4ccccc4)s3)ccc2c1` [Example 145, 6-(5-phenyl-2-thiazolyl)-2-naphthalenecarboximidamide], the IC50 under setting [1] was 2590 nM.
As for `COc1ccc2ccc(C(=N)N)cc2c1Sc1ccccc1` [Example 149, 7-methoxy-8-(phenylthio)-2-naphthalenecarboximidamide], the IC50 under setting [1] turned out to be 3800 nM.
On the same count and under the same terms, the value for `COc1ccc2ccc(C(=N)N)cc2c1Nc1cnccn1` [Example 150, 7-methoxy-8-(pyrazinylamino)-2-naphthalenecarboximidamide] was 160 nM; that for `CSc1cc(-c2cc(C(=O)Nc3ccccc3)cc3ccc(C(=N)N)cc23)co1` [Example 154, 6-(aminoiminomethyl-4-[5-(methylthio)-3-furanyl)]-N-phenyl-2-naphthalenecarboxamide] was 35 nM.
For the compound `COC(=O)NCc1cccc2ccc(C(=N)N)cc12` [Example 155, methyl [7-(aminoiminomethyl)-1-naphthalenyl]methyl carbamate], the IC50 under setting [2] stood at 2330 nM.
Compound `COC(=O)Nc1cc(C(=O)Nc2ccc(CN)cc2)cc2ccc(C(N)=NO)cc12` [Example 170, methyl [3-[[[4-(aminomethyl)phenyl]amino]carbonyl]-7-[4-amino(hydroxyimino)methyl]-1-naphthalenyl]carbamate] registered an IC50 under setting [1] of 695 nM.
On the same count and under the same terms, the value for `NC(=NO)c1ccc2cc(C(=O)Nc3ccccc3)ccc2c1` [Example 171] was more than 30000 nM; that for `N=C(N)c1ccc2cccc(Nc3ccccn3)c2c1` [Example 174, 8-(2-pyridinylamino)-2-naphthalenecarboximidamide] was 170 nM; that for `N=C(N)c1ccc2cc(OCc3ccc(CO)cc3)ccc2c1` [Example 176, 6-[4-[(hydroxymethyl)phenyl]methoxy]-2-naphthalenecarboximidamide] was 5010 nM.
For the compound `N=C(NO)c1ccc2cccc(Nc3ncccn3)c2c1` [Example 177, N-hydroxy-8-(2-pyrimidinylamino)-2-naphthalenecarboximidamide], the IC50 under setting [1] turned out to be 14900 nM.
Take `N=C(N)c1ccc2cc(C#Cc3ccccn3)ccc2c1` [Example 179, 6-(2-pyridinylethynyl)-2-naphthalenecarboximidamide]: the half-maximal inhibitory concentration (IC50) under setting [2] amounted to 1610 nM.
Compound `NC(=NO)c1ccc2cc(C(=O)Nc3ccccc3)cc(Nc3ncccn3)c2c1` [Example 181] yielded an IC50 under setting [1] of 8920 nM.
Still for that read-out and setting: in the case of `COC(=O)c1ccc(COc2ccc3ccc(C(N)=NO)cc3c2)cc1` [Example 182] it was more than 30000 nM.
As to `Cc1cc(NC(=O)c2ccc3cc(C(=N)N)ccc3c2)no1` [Example 192], under setting [2], the IC50 amounted to 1600 nM.
For `N=C(N)c1ccc2cc(C(=O)Nc3ncc(Br)s3)ccc2c1` [Example 197], the IC50 under setting [2] turned out to be 2030 nM.
Still for that read-out and setting: in the case of `CCCSc1cc(-c2cc(C(=O)Nc3ccccc3)cc3ccc(C(=N)N)cc23)co1` [Example 201] it was 77 nM.
For the compound `N=C(N)c1ccc2ccc(OCCN3CCOCC3)cc2c1` [Example 206, 7-[2-(4-morpholinyl)ethoxy]-2-naphthalenecarboximidamide], the IC50 under setting [1] was 5730 nM.
As for `N=C(N)c1ccc2cc(C(=O)Nc3ccccc3)cc(C3CCCN3)c2c1` (stereo not drawn) [Example 207, 6-(aminoiminomethyl)-N-phenol-4-(2-pyrrolidinyl)-2-naphthalenecarboxamide], under setting [2], the IC50 amounted to 4120 nM.
Still for that read-out and setting: in the case of `N=C(N)c1ccc2cc(OCC(=O)O)ccc2c1` [Example 212] it was 5090 nM; in that of `COC(=O)c1ccc(COc2ccc3cc(C(=N)N)ccc3c2)cc1` [Example 213], 4580 nM.
As for `N=C(N)c1ccc2cc(C3CC3c3ccc(CO)cc3)ccc2c1` (stereo not drawn) [Example 215, 6-[2-[4-(hydroxymethyl)phenyl]-1-cyclopropyl]-2-naphthalenecarboximidamide], the IC50 under setting [1] was 1100 nM.
Same read-out and setting: the value for `CCOC(=O)NC(=N)c1ccc2cc(C3CC3c3ccccc3)ccc2c1` (stereo not drawn) [Example 216, N-(ethoxycarbonyl)-6-(2-phenyl-1-cyclopropyl)-2-naphthalenecarboximidamide] was more than 30000 nM.
Regarding `N=C(N)c1ccc2cc(C(=O)Nc3cccc(OCc4ccccc4)c3)ccc2c1` [Example 222], the IC50 under setting [2] turned out to be 346 nM.
Turning to `CSCc1cc(-c2cc(C(=O)Nc3ccccc3)cc3ccc(C(=N)N)cc23)co1` [Example 229], the IC50 under setting [1] is 117 nM.
Turning to `CCSC1CC(c2cc(C(=O)Nc3ccccc3)cc3ccc(C(=N)N)cc23)CO1` (stereo not drawn) [Example 232, 6-(aminoiminomethyl)-4-[5-(ethythio)tetrahydro-3-furanyl]-N-phenyl-2-naphthalenecarboxamide], under setting [2], the half-maximal inhibitory concentration (IC50) worked out at 123 nM.
On the same count and under the same terms, in the case of “(E)-3-[7-(aminoiminomethyl)-2-methoxy-1-naphthalenyl)-2-propenamide [Example 120]” it was 930 nM; in that of “(E)-4-[2-(6-Aminoiminomethyl-2-naphthalenyl)ethenyl]benzenesulfonamide [Example 83]”, 2240 nM.
The same measure, in the same setting: the value for “(E)-4-[2-(6-Aminoiminomethyl-2-naphthalenyl)ethenyl]benzoic acid [Example 84]” was 10000 nM.
Still for that read-out and setting: the value for “(E)-6-[2-[4-(hydroxymethyl)phenyl]ethenyl]-2-naphthalenecarboximidamide [Example 108]” was 996 nM; that for “(S)-2-Amino-N-[1-[(6-aminoiminomethyl-2-naphthalenyl)carbonyl]cyclohexyl]propionamide [Example 37]” was 2340 nM; that for “Ethyl [6-(aminoiminomethyl)-2-naphthalenyl]carbamate [Example 78]” was 3570 nM.
As to “Methyl 3-[[7-(aminoiminomethyl)-1-naphthalenyl]amino]-3-oxopropionate [Example 17]”, the half-maximal inhibitory concentration (IC50) under setting [2] was 4260 nM.
Consider “Methyl [3-methoxy-6-(aminoiminomethyl)-4-naphthalenyl]carbamate [Example 90]”, for which the 50% inhibitory concentration (IC50) under setting [2] is 70 nM.
Same read-out and setting: the value for “Methyl [7-(aminoiminomethyl)-1-naphthalenyl)carbamate [Example 16]” was 30 nM; that for “Methyl [(7-aminoiminomethyl-2-methoxy-1-naphthalenyl)oxy]acetate [Example 6]” was 2300 nM; that for “N-(6-Aminoiminomethyl-2-naphthalenyl)-N′-benzylurea [Example 69]” was 1380 nM.
Still for that read-out and setting: the value for “N-(6-Aminoiminomethyl-2-naphthalenyl)-N′-isopropylurea [Example 71]” was 2390 nM; that for “N-(6-Aminoiminomethyl-2-naphthalenyl)-N′-methylurea [Example 70]” was 2570 nM.
The same measure, in the same setting: the value for “N-(6-aminoiminomethyl-2-naphthalenyl)-N′-benzyloxyurea [Example 75]” was 2090 nM; that for “N-(6-aminoiminomethyl-2-naphthalenyl)-N′-cyclohexylurea [Example 74]” was 1610 nM.
